The supplement of paper PMC10307832

Legend:
Experiment in all cases: relative viability (nuclei count vs DMSO), 5 days (fraction); higher = more cells survive
[1] = system: NCI-H1975
Summary of the method: (§1)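 One day after seeding in 1536-well plates, lung cancer cell lines were dosed by pin tool. Dosing was either single-drug or a fixed anchor-drug dose plus five library-drug doses (not always all listed) in √10 steps. After 5 days, nuclei were stained in one fix-and-stain step and counted on 4× images, and relative viability is the nuclei count of treated wells over that of vehicle wells, given as the median of duplicate plates.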

[2] = system: NCI-H647
Summary of the method: as §1

[3] = system: SW 1573
Summary of the method: as §1

[4] = system: NCI-H1755
Summary of the method: as §1

[5] = system: NCI-H2342
Summary of the method: as §1

[6] = system: A-427
Summary of the method: as §1

[7] = system: NCI-H2228
Summary of the method: as §1

[8] = system: NCI-H522
Summary of the method: as §1

[9] = system: NCI-H1915
Summary of the method: as §1

[10] = system: HCC-78
Summary of the method: as §1

[11] = system: RERF-LC-KJ
Summary of the method: as §1

[12] = system: HCC-15
Summary of the method: as §1

[13] = system: HOP-62
Summary of the method: as §1

[14] = system: SK-LU-1
Summary of the method: as §1

[15] = system: NCI-H2347
Summary of the method: as §1

[16] = system: LXF-289
Summary of the method: as §1

[17] = system: PC-3 [JPC-3]
Summary of the method: as §1

[18] = system: NCI-H2126
Summary of the method: as §1

[19] = system: LC-2-ad
Summary of the method: as §1

[20] = system: NCI-H1734
Summary of the method: as §1

[21] = system: NCI-H358
Summary of the method: as §1

SMILES: O=c1cc(N2CCOCC2)oc2c(-c3cccc4c3sc3ccccc34)cccc12 + O=C(CCCCCCC(=O)Nc1ccccc1)NO [Vorinostat] (partner 1 µM)
- relative viability ([1]; first compound 0.01 µM): 0.672
- relative viability ([1]; first compound 0.03162 µM): 0.69
- relative viability ([1]; first compound 0.1 µM): 0.733
- relative viability ([1]; first compound 0.3162 µM): 0.641
- relative viability ([1]; first compound 1 µM): 0.368
- relative viability ([2]; first compound 0.01 µM): 0.662
- relative viability ([2]; first compound 0.03162 µM): 0.708
- relative viability ([2]; first compound 0.1 µM): 0.462
- relative viability ([2]; first compound 0.3162 µM): 0.695
- relative viability ([2]; first compound 1 µM): 0.757
- relative viability ([3]; first compound 0.01 µM): 0.572
- relative viability ([3]; first compound 0.03162 µM): 0.767
- relative viability ([3]; first compound 0.1 µM): 0.55
- relative viability ([3]; first compound 0.3162 µM): 0.614
- relative viability ([3]; first compound 1 µM): 0.592
- relative viability ([4]; first compound 0.01 µM): 0.828
- relative viability ([4]; first compound 0.03162 µM): 0.775
- relative viability ([4]; first compound 0.1 µM): 0.793
- relative viability ([4]; first compound 0.3162 µM): 0.741
- relative viability ([4]; first compound 1 µM): 0.834
- relative viability ([5]; first compound 0.01 µM): 0.708
- relative viability ([5]; first compound 0.03162 µM): 0.828
- relative viability ([5]; first compound 0.1 µM): 0.748
- relative viability ([5]; first compound 0.3162 µM): 0.729
- relative viability ([5]; first compound 1 µM): 0.637
- relative viability ([6]; first compound 0.01 µM): 0.844
- relative viability ([6]; first compound 0.03162 µM): 0.95
- relative viability ([6]; first compound 0.1 µM): 0.843
- relative viability ([6]; first compound 0.3162 µM): 0.82
- relative viability ([6]; first compound 1 µM): 0.86
- relative viability ([7]; first compound 0.01 µM): 0.669
- relative viability ([7]; first compound 0.03162 µM): 0.896
- relative viability ([7]; first compound 0.1 µM): 0.562
- relative viability ([7]; first compound 0.3162 µM): 0.651
- relative viability ([7]; first compound 1 µM): 0.722
- relative viability ([8]; first compound 0.01 µM): 0.986
- relative viability ([8]; first compound 0.03162 µM): 0.932
- relative viability ([8]; first compound 0.1 µM): 0.864
- relative viability ([8]; first compound 0.3162 µM): 0.873
- relative viability ([8]; first compound 1 µM): 0.666
- relative viability ([9]; first compound 0.01 µM): 0.497
- relative viability ([9]; first compound 0.03162 µM): 0.596
- relative viability ([9]; first compound 0.1 µM): 0.521
- relative viability ([9]; first compound 0.3162 µM): 0.516
- relative viability ([9]; first compound 1 µM): 0.544
- relative viability ([10]; first compound 0.01 µM): 0.428
- relative viability ([10]; first compound 0.03162 µM): 0.406
- relative viability ([10]; first compound 0.1 µM): 0.44
- relative viability ([10]; first compound 0.3162 µM): 0.464
- relative viability ([10]; first compound 1 µM): 0.48
- relative viability ([11]; first compound 0.01 µM): 0.76
- relative viability ([11]; first compound 0.03162 µM): 0.694
- relative viability ([11]; first compound 0.1 µM): 0.775
- relative viability ([11]; first compound 0.3162 µM): 0.64
- relative viability ([11]; first compound 1 µM): 0.707
- relative viability ([12]; first compound 0.01 µM): 0.839
- relative viability ([12]; first compound 0.03162 µM): 0.775
- relative viability ([12]; first compound 0.1 µM): 0.858
- relative viability ([12]; first compound 0.3162 µM): 0.765
- relative viability ([12]; first compound 1 µM): 0.847
- relative viability ([13]; first compound 0.01 µM): 0.554
- relative viability ([13]; first compound 0.03162 µM): 0.775
- relative viability ([13]; first compound 0.1 µM): 0.58
- relative viability ([13]; first compound 0.3162 µM): 0.605
- relative viability ([13]; first compound 1 µM): 0.685
- relative viability ([14]; first compound 0.01 µM): 0.79
- relative viability ([14]; first compound 0.03162 µM): 0.707
- relative viability ([14]; first compound 0.1 µM): 0.751
- relative viability ([14]; first compound 0.3162 µM): 0.778
- relative viability ([14]; first compound 1 µM): 0.733
- relative viability ([15]; first compound 0.01 µM): 0.622
- relative viability ([15]; first compound 0.03162 µM): 0.547
- relative viability ([15]; first compound 0.1 µM): 0.534
- relative viability ([15]; first compound 0.3162 µM): 0.595
- relative viability ([15]; first compound 1 µM): 0.635
- relative viability ([16]; first compound 0.01 µM): 0.797
- relative viability ([16]; first compound 0.03162 µM): 0.789
- relative viability ([16]; first compound 0.1 µM): 0.693
- relative viability ([16]; first compound 0.3162 µM): 0.741
- relative viability ([16]; first compound 1 µM): 0.827
- relative viability ([17]; first compound 0.01 µM): 0.76
- relative viability ([17]; first compound 0.03162 µM): 0.774
- relative viability ([17]; first compound 0.1 µM): 0.859
- relative viability ([17]; first compound 0.3162 µM): 0.896
- relative viability ([17]; first compound 1 µM): 0.401
- relative viability ([18]; first compound 0.01 µM): 0.84
- relative viability ([18]; first compound 0.03162 µM): 0.751
- relative viability ([18]; first compound 0.1 µM): 0.668
- relative viability ([18]; first compound 0.3162 µM): 0.734
- relative viability ([18]; first compound 1 µM): 0.771
- relative viability ([19]; first compound 0.01 µM): 0.703
- relative viability ([19]; first compound 0.03162 µM): 0.72
- relative viability ([19]; first compound 0.1 µM): 0.798
- relative viability ([19]; first compound 0.3162 µM): 0.647
- relative viability ([19]; first compound 1 µM): 0.741
- relative viability ([20]; first compound 0.01 µM): 0.839
- relative viability ([20]; first compound 0.03162 µM): 0.819
- relative viability ([20]; first compound 0.1 µM): 0.631
- relative viability ([20]; first compound 0.3162 µM): 0.773
- relative viability ([20]; first compound 1 µM): 0.819
- relative viability ([21]; first compound 0.01 µM): 0.676
- relative viability ([21]; first compound 0.03162 µM): 0.619
- relative viability ([21]; first compound 0.1 µM): 0.75
- relative viability ([21]; first compound 0.3162 µM): 0.702
- relative viability ([21]; first compound 1 µM): 0.689
